Measurements: ChEMBL document CHEMBL1201862, “PubChem BioAssay data set” (2004)
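In this assay, cells in 96-well plates receive the compound at five concentrations for 48 hours. Endpoints are linearly interpolated between the surrounding concentrations. At the GI50, growth is halved.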 Active and inactive are the calls of the source. Rule as the data show it: active = GI50 up to about 1.1 µM and inactive = higher.

Assays:
Test in all cases: DTP human tumour cell line panel, 48 h
IGROV-1 = test system: IGROV-1
HCT-15 = test system: HCT-15
SNB-75 = test system: SNB-75
HCC 2998 = test system: HCC 2998
SF-268 = test system: SF-268
RXF 393 = test system: RXF 393
NCI-H522 = test system: NCI-H522
LXFL 529 = test system: LXFL 529
CAKI-1 = test system: CAKI-1
HT-29 = test system: HT-29
SF-539 = test system: SF-539
HL-60 = test system: HL-60
SF-295 = test system: SF-295
UACC-62 = test system: UACC-62
U-251 = test system: U-251
MCF7 = test system: MCF7
MDA-N = test system: MDA-N
DU-145 = test system: DU-145
PC-3 = test system: PC-3

CC1=C(/C(C)=N/NS(=O)(=O)c2ccc(C)cc2)Sc2ccccc2N1
GI50 (IGROV-1): > 100 µM (inactive) | GI50 (HCT-15): > 100 µM | GI50 (SNB-75): 75.7 µM (inactive) | GI50 (HCC 2998): > 100 µM (inactive) | GI50 (SF-268): > 100 µM (inactive) | GI50 (RXF 393): > 100 µM (inactive) | GI50 (NCI-H522): 46.7 µM (inactive) | GI50 (LXFL 529): 79.6 µM (inactive) | GI50 (CAKI-1): > 100 µM (inactive) | GI50 (HT-29): 98.6 µM (inactive) | GI50 (SF-539): > 100 µM (inactive) | GI50 (HL-60): 39.4 µM (inactive) | GI50 (SF-295): 50.5 µM (inactive) | GI50 (UACC-62): 32.9 µM (inactive) | GI50 (U-251): 47.9 µM (inactive)

CC(C)(C)C(=O)O[C@@H]1COC2C(O)COC21 (stereo partly specified)
GI50 (IGROV-1): > 100 µM (inactive) | GI50 (SNB-75): > 100 µM (inactive) | GI50 (HCC 2998): > 100 µM (inactive) | GI50 (SF-268): > 100 µM (inactive) | GI50 (RXF 393): > 100 µM (inactive) | GI50 (NCI-H522): > 100 µM (inactive) | GI50 (LXFL 529): > 100 µM (inactive) | GI50 (CAKI-1): > 100 µM (inactive) | GI50 (HT-29): > 100 µM (inactive) | GI50 (SF-539): > 100 µM (inactive) | GI50 (HL-60): > 100 µM (inactive) | GI50 (SF-295): > 100 µM (inactive) | GI50 (UACC-62): > 100 µM (inactive) | GI50 (U-251): > 100 µM (inactive)

CC(C)Cc1ccc(C(C)/C=C2\CCC(CN3CCCCC3)C2=O)cc1 (stereo unspecified)
GI50 (IGROV-1): 4.25 µM (inactive) | GI50 (HCT-15): 2.75 µM | GI50 (SNB-75): 15.6 µM (inactive) | GI50 (HCC 2998): 6.37 µM (inactive) | GI50 (MCF7): 1.64 µM (inactive) | GI50 (SF-268): 3.66 µM (inactive) | GI50 (MDA-N): 3.7 µM (inactive) | GI50 (DU-145): 16.2 µM (inactive) | GI50 (RXF 393): 2.52 µM (inactive) | GI50 (NCI-H522): 1.35 µM (inactive) | GI50 (LXFL 529): 1.91 µM (inactive) | GI50 (CAKI-1): 6.87 µM (inactive) | GI50 (HT-29): 5.12 µM (inactive) | GI50 (SF-539): 4.54 µM (inactive) | GI50 (HL-60): 1.12 µM (inactive) | GI50 (SF-295): 13.3 µM (inactive) | GI50 (PC-3): 6.31 µM (inactive) | GI50 (UACC-62): 10.5 µM (inactive) | GI50 (U-251): 2.14 µM (inactive)

CCCCCCCCCCCC(=O)OCC1OC(n2cc(F)c(=O)[nH]c2=O)C(NC(=O)OCc2ccccc2)C(O)C1O (stereo unspecified)
GI50 (IGROV-1): > 100 µM (inactive) | GI50 (HCT-15): 19.7 µM | GI50 (SNB-75): 11.1 µM (inactive) | GI50 (HCC 2998): 18.4 µM (inactive) | GI50 (SF-268): 39.5 µM (inactive) | GI50 (RXF 393): 27.2 µM (inactive) | GI50 (NCI-H522): 14.5 µM (inactive) | GI50 (LXFL 529): 18.6 µM (inactive) | GI50 (CAKI-1): 32.6 µM (inactive) | GI50 (HT-29): 16.1 µM (inactive) | GI50 (SF-539): 22 µM (inactive) | GI50 (HL-60): 20.6 µM (inactive) | GI50 (SF-295): 27.9 µM (inactive) | GI50 (UACC-62): 19.3 µM (inactive) | GI50 (U-251): 19 µM (inactive)

Cc1ccc(S(=O)(=O)N[C@H](C(=O)O)c2ccccc2)cc1
GI50 (IGROV-1): > 100 µM (inactive) | GI50 (HCT-15): > 100 µM | GI50 (SNB-75): > 100 µM (inactive) | GI50 (HCC 2998): > 100 µM (inactive) | GI50 (SF-268): > 100 µM (inactive) | GI50 (RXF 393): > 100 µM (inactive) | GI50 (NCI-H522): > 100 µM (inactive) | GI50 (LXFL 529): > 100 µM (inactive) | GI50 (CAKI-1): > 100 µM (inactive) | GI50 (HT-29): > 100 µM (inactive) | GI50 (SF-539): > 100 µM (inactive) | GI50 (HL-60): > 100 µM (inactive) | GI50 (SF-295): > 100 µM (inactive) | GI50 (UACC-62): > 100 µM (inactive) | GI50 (U-251): > 100 µM (inactive)

N#CCCc1nc2ccc(Br)cc2c(=O)n1CCO
GI50 (IGROV-1): > 100 µM (inactive) | GI50 (HCT-15): > 100 µM | GI50 (SNB-75): > 100 µM (inactive) | GI50 (HCC 2998): > 100 µM (inactive) | GI50 (SF-268): > 100 µM (inactive) | GI50 (RXF 393): > 100 µM (inactive) | GI50 (NCI-H522): > 100 µM (inactive) | GI50 (LXFL 529): > 100 µM (inactive) | GI50 (CAKI-1): > 100 µM (inactive) | GI50 (SF-539): > 100 µM (inactive) | GI50 (HL-60): > 100 µM (inactive) | GI50 (SF-295): > 100 µM (inactive) | GI50 (UACC-62): > 100 µM (inactive)
